The values below are quoted from earlier work in PMC6311893, “Computational prediction of plasma protein binding of cyclic peptides from small molecule experimental data using sparse modeling techniques” (BMC Bioinformatics, 2018).

This data set concerns plasma protein. The conditions noted are these: cited from earlier work.
[1] abbreviates: fraction bound to plasma protein, small molecule dataset, sheet 1-SM, ref Ingle et al.
Setting [2] is: fraction bound to plasma protein, small molecule dataset, sheet 1-SM (Set Dte = test, Dtr = training), ref Ingle et al.
Setting [3] is: fraction bound to plasma protein, small molecule dataset, sheet 1-SM, Set Dtr, ref Ingle et al.

Like-named read-outs stand apart in the source and are kept apart here.

As to `Cc1ncc([N+](=O)[O-])n1CC(O)CCl` (stereo not drawn) [ornidazole], the “PPB (fb)” value under setting [1] is recorded as 0.15.

Take `COC(C(=O)NC1C(=O)N2C1SC(C)(C)C2C(=O)O)c1cccc(Cl)c1` (stereo not drawn) [penicillin40]: the “PPB (fb)” value under setting [1] is 0.83.

`Cc1ccccc1-n1c(C)nc2ccccc2c1=O` [methaqualone]: the “PPB (fb)” value (plasma) is on record as 0.85.

For `C[C@]12CC[C@H]3[C@@H](CCC4=CC(=O)CC[C@@]43C)[C@@H]1CC[C@@H]2O` [Testosterone], the “PPB (fb)” value (plasma) is reported as 0.6.

Consider `CC(Cc1ccc(C(C)C(=O)NS(C)(=O)=O)cc1)C(=O)O` (stereo not drawn) [JMC_10], for which the “PPB (fb)” value under setting [1] is reported as 0.7.

Consider `CCCc1cc(=O)[nH]c(=S)[nH]1` [Propylthiouracil], for which the “PPB (fb)” value under setting [2] is 0.81.

Consider `O=C(OCCN1CCCCCC1)C(c1ccsc1)C1CCCCC1` (stereo not drawn) [Cetiedil], for which the “PPB (fb)” value under setting [2] is given as 0.74.

Take `CNCCCN1c2ccccc2CCc2ccccc21` [Desipramine]: the “PPB (fb)” value under setting [3] is 0.85.

On to `COc1ccccc1OCCNCC(O)COc1cccc2[nH]c3ccccc3c12` (stereo not drawn) [Carvedilol], for which the “PPB (fb)” value under setting [3] is on record as 0.96.

With `NNC(=O)c1ccncc1` [Isoniazid], under setting [3], the “PPB (fb)” value was 0.01.

Turning to `CCCc1nc(C)c2c(=O)[nH]c(-c3cc(S(=O)(=O)N4CCN(CC)CC4)ccc3OCC)nn12` [Vardenafil], the “PPB (fb)” value under setting [1] was 0.95.

Turning to `C#CC(O)(/C=C/Cl)CC` (stereo not drawn) [ethchlorvynol], under “plasma”, the “PPB (fb)” value is on record as 0.6.

For `CN(C)S(=O)(=O)C1=CC2C(C=C1)Sc1ccccc1N2CCCN1CCC(CCO)CC1` (stereo not drawn) [Pipotiazine], the “PPB (fb)” value under setting [1] is 0.45.

For `Clc1ccc2c(c1)C(c1ccccc1)=NCc1nncn1-2` [estazolam], where the note is “plasma”, the “PPB (fb)” value is given as 0.93.

Consider `O=C(O)c1cc(/N=N/c2ccc(S(=O)(=O)Nc3ccccn3)cc2)ccc1O` [sulfasalazine], for which the “PPB (fb)” value under setting [1] is on record as 0.97.

`CCC[C@H](N[C@@H](C)C(=O)N1[C@H](C(=O)O)C[C@@H]2CCCC[C@@H]21)C(=O)OCC` [perindopril]: under setting [1], the “PPB (fb)” value was 0.6.

As for `CCOc1ccc(NC(C)=O)cc1` [Phenacetin], under setting [3], the “PPB (fb)” value is reported as 0.41.

Consider `CCc1nn(CCCN2CCN(c3cccc(Cl)c3)CC2)c(=O)n1CCOc1ccccc1` [Nefazodone], for which the “PPB (fb)” value under setting [3] is recorded as 0.99.

As to `CCNCC(O)c1cccc(O)c1` (stereo not drawn) [Etilefrine], under setting [2], the “PPB (fb)” value is given as 0.24.

On to `CCn1cc(C(=O)O)c(=O)c2cnc(N3CCNCC3)nc21` [pipemidic acid], for which the “PPB (fb)” value under setting [1] is given as 0.3.

For `COc1cccc2c1C(=O)c1c(O)c3c(c(O)c1C2=O)C[C@@](O)(C(=O)CO)C[C@@H]3O[C@H]1C[C@H](N)[C@H](O)[C@H](C)O1` [Doxorubicin], the “PPB (fb)” value under setting [3] was 0.73.

`COC(C(=O)NC1C(=O)N2C1SC(C)(C)C2C(=O)O)c1ccc(Cl)c(Cl)c1` (stereo not drawn) [penicillin56]: under setting [1], the “PPB (fb)” value is listed as 0.95.

As to `CO[C@H]1C[C@@H]2CC[C@@H](C)[C@@](O)(O2)C(=O)C(=O)N2CCCC[C@H]2C(=O)O[C@H]([C@H](C)C[C@@H]2CC[C@@H](OCCO)[C@H](OC)C2)CC(=O)[C@H](C)/C=C(\C)[C@@H](O)[C@@H](OC)C(=O)[C@H](C)C[C@H](C)/C=C/C=C/C=C/1C` [everolimus], under setting [1], the “PPB (fb)” value is listed as 0.74.

As to `CCCN1CCCC[C@H]1C(=O)Nc1c(C)cccc1C` [Ropivacaine], the “PPB (fb)” value under setting [1] is given as 0.94.

For `O=C(NCCN1CCOCC1)c1ccc(Cl)cc1` [Moclobemide], the “PPB (fb)” value under setting [3] is reported as 0.36.

Consider `CC(NCCc1ccc(O)cc1)C(O)c1ccc(O)cc1` (stereo not drawn) [Ritodrine], for which the “PPB (fb)” value under setting [1] is given as 0.33.

With `COc1ccc(Cl)cc1C(=O)NCCc1ccc(S(=O)(=O)NC(=O)NC2CCCCC2)cc1` [Glyburide], the “PPB (fb)” value under setting [3] is 0.98.

Consider `Nc1nc(NC2CC2)c2ncn([C@H]3C=C[C@@H](CO)C3)c2n1` [Abacavir], for which the “PPB (fb)” value under setting [3] is 0.5.

In the case of nafarelin, where the note is “plasma”, the “PPB (fb)” value is reported as 0.8.

For `O=C(O)[C@H]1/C(=C/CO)O[C@@H]2CC(=O)N21` [clavulanate], under setting [2], the “PPB (fb)” value was 0.23.

Take `COc1ccc(-c2nc3ccc(C4=NNC(=O)CC4C)cc3[nH]2)cc1` (stereo not drawn) [Pimobendan]: under setting [3], the “PPB (fb)” value is listed as 0.98.

With `CN1CCN=C(c2ccccc2)c2cc(Cl)ccc21` [medazepam], the “PPB (fb)” value (plasma) is listed as 0.99.

For the molecule `Nc1nc(Cl)nc2c1ncn2[C@H]1C[C@H](O)[C@@H](CO)O1` [Cladribine], the “PPB (fb)” value under setting [3] is listed as 0.2.

Regarding `CC1(C)S[C@@H]2[C@H](NC(=O)[C@H](NC(=O)N3CCN(S(C)(=O)=O)C3=O)c3ccccc3)C(=O)N2[C@H]1C(=O)O` [Mezlocillin], the “PPB (fb)” value under setting [3] was 0.31.

With `CC(NC(C)(C)C)C(=O)c1cccc(Cl)c1` (stereo not drawn) [bupropion], the “PPB (fb)” value under setting [2] is reported as 0.75.

As for `COc1cnc(NS(=O)(=O)c2ccc(N)cc2)nc1` [sulfametoxydiazine], under setting [1], the “PPB (fb)” value was 0.83.

Turning to `COc1c2occc2cc2ccc(=O)oc12` [methoxsalen], the “PPB (fb)” value under setting [1] is 0.83.

In the case of `CC/C=C/C/C=C/C/C=C/C/C=C/C=C/C(O)CCCC(=O)O` (stereo not drawn) [hepe], the “PPB (fb)” value under setting [1] was 0.99.

In the case of `OCCN1CCN(CCCN2c3ccccc3Sc3ccc(Cl)cc32)CC1` [Perphenazine], the “PPB (fb)” value under setting [3] was 0.92.

Consider `CC1(C)SC2C(NC=O)C(=O)N2C1C(=O)O` (stereo not drawn) [penicillin1], for which the “PPB (fb)” value under setting [2] was 0.18.

`CN(C)CCOC1=Cc2ccccc2Sc2ccc(Cl)cc21` [zotepine]: the “PPB (fb)” value under setting [2] is recorded as 0.97.

As for `CC(C)Cc1ccc(C(C)C(=O)NCCCN(C)C)cc1` (stereo not drawn) [JMC_07], the “PPB (fb)” value under setting [1] is listed as 0.75.

Take `O=C1[C@H](CC[C@H](O)c2ccc(F)cc2)[C@@H](c2ccc(O)cc2)N1c1ccc(F)cc1` [Ezetimibe]: the “PPB (fb)” value under setting [1] was 0.9.

With `CC1(C)S[C@@H]2[C@H](NC(=O)[C@H](C(=O)O)c3ccsc3)C(=O)N2[C@H]1C(=O)O` [Ticarcillin], under setting [1], the “PPB (fb)” value is on record as 0.51.

For `Nc1c(Br)cc(Br)cc1CN[C@H]1CC[C@H](O)CC1` [ambroxol], the “PPB (fb)” value under setting [2] is given as 0.9.

Turning to `CN1CCC(=C2c3ccccc3CC(=O)c3sccc32)CC1` [ketotifen], the “PPB (fb)” value under setting [1] was 0.8.

Regarding `CCC(COc1c(Cl)cccc1Cl)C(=O)NC1C(=O)N2C1SC(C)(C)C2C(=O)O` (stereo not drawn) [penicillin63], the “PPB (fb)” value under setting [1] is on record as 0.95.

Regarding `CC[C@@H](C(N)=O)N1CCCC1=O` [levetiracetam], the “PPB (fb)” value under setting [1] is listed as 0.05.

For `Nc1ccc(C(=O)O)c(O)c1` [4-aminosalicylic acid], the “PPB (fb)” value was 0.62.

On to phenprocoumon, for which, under “plasma”, the “PPB (fb)” value is 0.99.

As to `CN(C)CCCN1c2ccccc2CCc2cc(O)ccc21` [Hydroxyimipramine__ 2-], the “PPB (fb)” value under setting [3] was 0.64.

Take `N=C(N)N1CCc2ccccc2C1` [debrisoquine]: the “PPB (fb)” value under setting [2] was 0.85.

Take `CC[C@H]1OC(=O)[C@H](C)[C@@H](O[C@H]2C[C@@](C)(OC)[C@@H](O)[C@H](C)O2)[C@H](C)[C@@H](O[C@@H]2O[C@H](C)C[C@H](N(C)C)[C@H]2O)[C@](C)(O)C[C@@H](C)CN(C)[C@H](C)[C@@H](O)[C@]1(C)O` [Azithromycin]: under setting [3], the “PPB (fb)” value is given as 0.23.

As for `[H]/N=C(/N)NS(=O)(=O)c1ccc(N)cc1` [sulfaguanidine], under setting [1], the “PPB (fb)” value is reported as 0.08.

`Cc1onc(-c2ccccc2)c1-c1ccc(S(N)(=O)=O)cc1` [valdecoxib]: under setting [3], the “PPB (fb)” value was 0.98.

With `Cc1oncc1C(=O)Nc1ccc(C(F)(F)F)cc1` [leflunomide], under setting [1], the “PPB (fb)” value was 0.99.

Regarding `CNC(=C[N+](=O)[O-])NCCSCc1csc(CN(C)C)n1` [Nizatidine], the “PPB (fb)” value under setting [3] was 0.32.
